From ChEMBL document CHEMBL5154832, “Design, Synthesis, and Proof-of-Concept of Triple-Site Inhibitors against Aminoacyl-tRNA Synthetases” (J Med Chem, 2022)
Values after ≈ are worked out from the molar mass of the structure shown.

Columns and labels:
[1] = target: T1, Threonine--tRNA ligase (Salmonella enterica) (UniProt A0A3F3IEK2); experiment: Binding affinity to recombinant salmonella enterica threonyl-tRNA synthetase assessed as change in melting temperature at 0.1 mM by fluorescence-based thermal shift assay
T1 sequence (whole entry): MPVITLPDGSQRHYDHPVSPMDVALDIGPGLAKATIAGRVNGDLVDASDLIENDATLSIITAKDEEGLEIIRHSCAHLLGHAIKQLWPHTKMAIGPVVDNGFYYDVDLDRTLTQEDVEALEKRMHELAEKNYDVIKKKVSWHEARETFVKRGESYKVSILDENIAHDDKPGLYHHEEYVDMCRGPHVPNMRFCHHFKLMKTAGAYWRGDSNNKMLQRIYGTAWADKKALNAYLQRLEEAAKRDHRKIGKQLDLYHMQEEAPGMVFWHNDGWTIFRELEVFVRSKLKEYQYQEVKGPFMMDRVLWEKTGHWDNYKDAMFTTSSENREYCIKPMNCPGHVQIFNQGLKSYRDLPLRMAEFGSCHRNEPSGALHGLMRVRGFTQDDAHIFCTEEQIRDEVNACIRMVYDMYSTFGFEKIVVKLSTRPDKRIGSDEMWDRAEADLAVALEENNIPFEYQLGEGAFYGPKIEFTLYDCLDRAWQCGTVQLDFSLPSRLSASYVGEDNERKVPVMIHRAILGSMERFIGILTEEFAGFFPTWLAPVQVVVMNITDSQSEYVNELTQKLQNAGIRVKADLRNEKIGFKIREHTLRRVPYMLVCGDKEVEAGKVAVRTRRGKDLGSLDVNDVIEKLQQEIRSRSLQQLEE

[2] = target: T1, Threonine--tRNA ligase (Salmonella enterica); experiment: Inhibition of recombinant salmonella enterica threonyl-tRNA synthetase assessed as reduction in enzyme activity at 10 uM incubated for 20 min by Kinase Glo luminescence assay relative to control
[3] = target: T2, Threonine--tRNA ligase (Salmonella enterica, UniProt A0A3F3IEK2); experiment: Inhibition of recombinant salmonella enterica threonyl-tRNA synthetase assessed as reduction in enzyme activity incubated for 20 min by Kinase Glo luminescence assay
T2 sequence (A0A3F3IEK2 whole entry): T1 sequence (whole entry)

[4] = tested on: Salmonella enterica; experiment: Antibacterial activity against Salmonella enterica 87 strain assessed as inhibition of bacterial growth incubated for 8 hrs by CLSI protocol based microdilution assay; type: functional
[5] = tested on: Pseudomonas aeruginosa; experiment: Antibacterial activity against Pseudomonas aeruginosa ATCC27853 strain assessed as inhibition of bacterial growth incubated for 8 hrs by CLSI protocol based microdilution assay; type: functional
[6] = tested on: Escherichia coli; experiment: Antibacterial activity against Escherichia coli acraB strain assessed as inhibition of bacterial growth incubated for 8 hrs by CLSI protocol based microdilution assay; type: functional
[7] = tested on: Enterococcus faecalis; experiment: Antibacterial activity against Enterococcus faecalis ATCC 29212 strain assessed as inhibition of bacterial growth incubated for 8 hrs by CLSI protocol based microdilution assay; type: functional
[8] = tested on: Staphylococcus aureus; experiment: Antibacterial activity against Staphylococcus aureus ATCC 29213 strain assessed as inhibition of bacterial growth incubated for 8 hrs by CLSI protocol based microdilution assay; type: functional
[9] = tested on: Escherichia coli; experiment: Antibacterial activity against Escherichia coli ATCC 25922 strain assessed as inhibition of bacterial growth incubated for 8 hrs by CLSI protocol based microdilution assay; type: functional
[10] = tested on: Staphylococcus aureus; experiment: Antibacterial activity against Staphylococcus aureus MRSA R3708 strain assessed as inhibition of bacterial growth incubated for 8 hrs by CLSI protocol based microdilution assay; type: functional

ΔTm [1] [°C]	inhibition [2] [%]	IC50 [3] [µM]	MIC [4] [µg/mL]	MIC [5] [µg/mL]	MIC [6] [µg/mL]	MIC [7] [µg/mL]	MIC [8] [µg/mL]	MIC [9] [µg/mL]	MIC [10] [µg/mL]	Structure (SMILES)
27.8	84	2.99	≥ 128	64 (≈ 90.1 µM)	64 (≈ 90.1 µM)	64 (≈ 90.1 µM)	≥ 128	≥ 128	≥ 128	C[C@@H](O)[C@H](N)C(=O)N(CCCC(=O)NCCn1cnc2cc(Br)c(Cl)cc2c1=O)Cc1cccc(-c2ccc3c(c2)CNC3=O)c1
22.6	91	1.62	≥ 128	32 (≈ 48 µM)	16 (≈ 24 µM)	32 (≈ 48 µM)	32 (≈ 48 µM)	≥ 128	32 (≈ 48 µM)	C[C@@H](O)[C@H](N)C(=O)N[C@@H](CNC(=O)CCn1cnc2cc(Br)c(Cl)cc2c1=O)c1cccc(-c2ccc3[nH]ccc3c2)c1
17.9	86	1.86								C[C@@H](O)[C@H](N)C(=O)N[C@H](CNC(=O)CCn1cnc2cc(Br)c(Cl)cc2c1=O)c1cccc(-c2ccc3c(c2)CNC3=O)c1
10.2	30									C[C@@H](O)[C@H](N)C(=O)N[C@H](CNC(=O)CCn1cnc2cc(Br)c(Cl)cc2c1=O)c1cccc(-c2ccc3[nH]ncc3c2)c1
0										C[C@@H](O)[C@H](N)C(=O)N(CCCOC(=O)Cn1cnc2cc(Br)c(Cl)cc2c1=O)Cc1cccc(-c2ccc3c(c2)CNC3=O)c1

Continued, compound first:

Structure (SMILES)	ΔTm [1] [°C]	inhibition [2] [%]	IC50 [3] [µM]	MIC [4] [µg/mL]	MIC [5] [µg/mL]	MIC [6] [µg/mL]	MIC [7] [µg/mL]	MIC [8] [µg/mL]	MIC [9] [µg/mL]	MIC [10] [µg/mL]
C[C@@H](O)[C@H](N)C(=O)N[C@H](CNC(=O)CCn1cnc2cc(Br)c(Cl)cc2c1=O)c1cccc(-c2ccc3c(N)ncnc3c2)c1	29.4	57	6.63							
C[C@@H](O)[C@H](N)C(=O)N[C@@H](CNC(=O)CCn1cnc2cc(Br)c(Cl)cc2c1=O)c1cccc(-c2ccc3ccccc3c2)c1	20.2	85	2.1	≥ 128	4 (≈ 5.91 µM)	8 (≈ 11.8 µM)	4 (≈ 5.91 µM)	4 (≈ 5.91 µM)	≥ 128	4 (≈ 5.91 µM)
C[C@@H](O)[C@H](N)C(=O)N[C@@H](CNC(=O)CCn1cnc2cc(Br)c(Cl)cc2c1=O)c1cccc(-c2ccccc2)c1	20.1	82	3.71	≥ 128	16 (≈ 25.5 µM)	32 (≈ 51 µM)	32 (≈ 51 µM)	32 (≈ 51 µM)	≥ 128	32 (≈ 51 µM)
C[C@@H](O)[C@H](N)C(=O)N[C@@H](CNC(=O)CCn1cnc2cc(Cl)c(F)cc2c1=O)c1cccc(-c2ccccc2)c1	22.6	> 99	0.55	≥ 128	16 (≈ 28.3 µM)	32 (≈ 56.5 µM)	32 (≈ 56.5 µM)	16 (≈ 28.3 µM)	≥ 128	32 (≈ 56.5 µM)
C[C@@H](O)[C@H](N)C(=O)N[C@@H](CNC(=O)CCn1cnc2cc(Cl)c(Cl)cc2c1=O)c1cccc(-c2ccc(Cl)cc2)c1	20.1	75	3.29	≥ 128	4 (≈ 6.48 µM)	8 (≈ 13 µM)	4 (≈ 6.48 µM)	4 (≈ 6.48 µM)	≥ 128	4 (≈ 6.48 µM)
C[C@@H](O)[C@H](N)C(=O)N[C@H](CNC(=O)CCn1cnc2cc(Br)c(Cl)cc2c1=O)c1cccc(-c2ccc3ccccc3c2)c1	4.8									
C[C@@H](O)[C@H](N)C(=O)N[C@@H](CNC(=O)CCn1cnc2cc(Br)c(Cl)cc2c1=O)c1cccc(-c2ccc3c(N)ncnc3c2)c1	35.2	> 99	0.48	≥ 128	≥ 128	≥ 128	≥ 128	≥ 128	≥ 128	≥ 128
C[C@@H](O)[C@H](N)C(=O)N[C@@H](CNC(=O)CCn1cnc2cc(Cl)c(Cl)cc2c1=O)c1cccc(-c2ccccc2)c1	23	> 99	0.52	≥ 128	16 (≈ 27.5 µM)	16 (≈ 27.5 µM)	32 (≈ 54.9 µM)	32 (≈ 54.9 µM)	≥ 128	16 (≈ 27.5 µM)
CC1(C)S[C@@H]2[C@H](NC(=O)[C@H](N)c3ccccc3)C(=O)N2[C@H]1C(=O)O [AMPICILLIN]				1 (≈ 2.86 µM)	1 (≈ 2.86 µM)	1 (≈ 2.86 µM)			1 (≈ 2.86 µM)	
